Experimental data from patent US20230265043A1, “CRYSTALLINE FORM OF PHENTERMINE HYDROCHLORIDE AND PROCESS FOR OBTAINING SAME” (priority 2020, published 2023).
Structures can show the parent of a compound that is named as a salt.

Legend:
Format in all cases: physicochemical
[1] = DSC heating and X-ray diffraction after heating (conversion of monohydrate to anhydrous form); conditions: 10° C./min, nitrogen flow, XRD after heating at 60° C.
Procedure: (B), when it converts to anhydrous form.
(§1) The Differential Scanning calorimetry (DSC) experiment (FIG. 8) is performed under an inert atmosphere using nitrogen flow. Therefore, for phentermine hydrochloride monohydrate, such flow favors water loss, and the experiment will have underestimated results.
Furthermore, the melting of the anhydrous form occurs around 200° C. in which the active also starts the decomposition process.

[2] = accelerated stability study in oven, 50° C. and 75% relative humidity, 30 days
Procedure: Phentermine hydrochloride monohydrate's stability was tested by keeping 25 g of sample in an oven under conditions of 50° C. and 75% relative humidity for 30 days, as recommended by the FDA guide (Food and Drug Administration, Guidance for Industry Q1A(R2) Stability Testing of New Drug Substances and Products, November 2003 rev.2).

[3] = dynamic water vapor desorption, relative humidity 95% to 0% at 25° C.; conditions: desorption 95% to 0% RH in steps of 5%, 25° C. (FIG. 9)
Procedure: (§2) In all humidity conditions, the equilibrium criterion of mass variation of less than 0.001% was reached.
as §1

[4] = dynamic water vapor adsorption (DVS) at 60%, 80% and 95% relative humidity; conditions: for gain by mass at 80% relative humidity: 25° C., equilibrium reached; for hygroscopicity classification according to the British Pharmacopoeia, Ed. 2016: based on mass gain at 80% relative humidity
Description: as §2
FIG. 13 presents dynamic water vapor sorption experiments under different humidity conditions for the anhydrous and monohydrate forms of phentermine hydrochloride. It is noted that in all analyzed humidity conditions, the system reached equilibrium, with the monohydrate form being much less hygroscopic than the anhydrous form. Phentermine hydrochloride in anhydrous form has a gain of about 7.5% by mass at 80% relative humidity, being classified as hygroscopic according to the British Pharmacopoeia (BF) (British Pharmacopoeia, Ed. 2016), which can cause dosing problems if the active is manipulated in high humidity conditions. In addition, the fact that the anhydrous form is hygroscopic allows its conversion to the monohydrate form in case of exposure to excessive amounts of water.

| Structure (SMILES) | temperature of conversion to the anhydrous form on heating [1] | polymorphic conversion after accelerated stability test (infrared absorption and X-ray diffraction) [2] | relative humidity in which the form is stable [3] | times less hygroscopic than the anhydrous form ([4]; 80% relative humidity) [times] | gain by mass at 80% relative humidity ([4]; 80% relative humidity) | hygroscopicity classification according to the British Pharmacopoeia, Ed. 2016 [4] |
| --- | --- | --- | --- | --- | --- | --- |
| CC(C)(N)Cc1ccccc1 [Phentermine hydrochloride monohydrate, phentermine hydrochloride monohydrate] | above 50 °C | no polymorphic conversion | higher than 50% | 10 | about 0.75 % by mass | slightly hygroscopic |
| CC(C)(N)Cc1ccccc1.Cl [2-methyl-1-phenylpropan-2-amine, reference compound] |  |  |  |  | about 7.5 % by mass | hygroscopic |
